For assay [1], the system named is MDA MB-231 cell line (Breast). In words: MTT cell proliferation assay, MDA MB-231. Type of assay: cell-based, human. The conditions noted are these: Homo sapiens, MDA-MB-231; MTT, 48 h treatment, medium with 10% FBS; read-out: IC50 μM MDA MB-231 (Breast). On the procedure: (§1) Cell Culture: The human breast cancer epithelial cell lines MDA-MB-231 (HTB-26™), MCF-7 (HTB-22™), colon cancer cell lines HCT 116 (CCL-247™) and […] (CCL-244™) were obtained from American Type Culture Collection (ATCC). Additionally, KAIMRC1 cell line was isolated and developed at KAIMRC from a breast cancer patient. All the cells were grown in advanced DMEM containing 10% fetal bovine serum (FBS), 50 units/mL penicillin, 50 ug/mL streptomycin (GIBCO), and 2 mM glutamine (GIBCO). The cells were cultured at 37° C. in a humidified 5% CO2 atmosphere for 24 hours before experimental procedure.
(§2) Cell Proliferation Assay (MTT): Cells were plated on flat-bottom 96-well plates at a density of 5×10^3 cells/well in 100 μL growth medium. Serial dilutions of the compounds, ranging from 100 nM-100 μM were tested on the cells in triplicates. Additional rows with only the compounds and only cells were added in order to account for the compounds and cells effect. Cells were incubated with compounds for 48 h at 37° C. with 5% CO2.
(§3) After 48 h treatment, the cell viability was determined using the MTT viability assay. Briefly, 5 μL of MTT reagent (5 mg/mL stock) per 95 μl cell culture medium was added to each well and incubated for 3 h at 37° C. with 5% CO2. After 3 h the supernatant was removed, and the MTT formazan crystals were dissolved in dimethyl sulfoxide (DMSO) by shaking the plate for 30 mins at RT. The absorbance was measured on Molecular Devices microplate absorbance reader at 560 nm. The percentage of viable cells was calculated as the ratio of the absorbance of the treated group divided by the absorbance of the control group multiplied by 100. The absorbance from the untreated control cells was set as 100% viable. IC50 values were calculated from dose-response curves generated using a polynomial dose-response approximation using Prism 8 software. The IC50 values (µM) obtained for the compounds of present invention on MDA-MD 231 (breast), MCF-7 (breast), KAIMRC1 (breast), HCT116 (colon) and HCT8 (colon) are summarized in Table 5 and 6.
On the technique in general: Tetrazolium assays rely on reduction of a dye to a coloured formazan, in cell work by metabolically active cells.

For assay [2], the system named is MCF-7 (Breast). In words: MTT cell proliferation assay, MCF-7. Type of assay: cell-based, human. The following applies: Homo sapiens, MCF7; MTT, 48 h treatment, medium with 10% FBS; read-out: IC50 μM MCF-7 (Breast). On the procedure:
as §1, §2, §3

Assay [3] relates to HCT116 (Colon). In words: MTT cell proliferation assay, HCT116. Type of assay: cell-based, human. The conditions noted are these: Homo sapiens, HCT-116; MTT, 48 h treatment, medium with 10% FBS; read-out: IC50 μM HCT116 (Colon). As to the method: as §1, §2, §3
Assay [4] concerns HCT 8 (Colon). In words: MTT cell proliferation assay, HCT 8. Format: cell-based, human. The following applies: Homo sapiens, HCT-8; MTT, 48 h treatment, medium with 10% FBS; read-out: IC50 μM HCT 8 (Colon). On the procedure: as §1, §2, §3
For assay [5], the system named is KAIMRC1 (Breast). As to the kind of experiment: MTT cell proliferation assay, KAIMRC1. Type of assay: cell-based, human. The following applies: Homo sapiens; MTT, 48 h treatment, medium with 10% FBS; read-out: IC50 μM KAIMRC1 (Breast).
Source text: The immortalized cell lines included in the testing panel of this disclosure are MCF7 (a breast cancer cell line), MCF10 (immortalized human breast epithelial cells), MDA-MB231 (an epithelial, human breast cancer cell line that was established from a pleural effusion of a patient with a metastatic mammary adenocarcinoma), KAIMRC1 (a naturally immortalized human breast carcinoma cell line), KAIMRC2 (a naturally immortalized breast cancer cell line). The primary cells available for lead toxicity assays are, without limitation: hepatocytes (supplied by Xenotech, Bioscience Lonza, Accegen, Biocompare, Gibco, Zen-Bio, Takarabio, AxolBio, Creative Bioarray), cardiomyocytes (supplied by Cellartis, Axolbio, Cedarlanelabs, EMD Millipore, Takara Bio, Neuromics, AcceGene), primary neurons (AcceGen, Cellapplications, Neuromics, Biocompare, AxolBio, BrainXcell), endothelial lining (Thermofisher, Accegen, Biocompare, Promocell, ATCC). Multicellular 3D organoids raised by differentiating iPSC (induced pluripotent stem cells) are provided by Sigma Aldrich (the iPSC cell lines, organoids), Tocris Bioscience, Thermofisher, Stemcell Technologies, Takara Bio, Emulatebio (Human organ chips), Prodolabs.
as §1, §2, §3

For assay [6], the system named is ThP1 (leukemia). As to the kind of experiment: Cell Titre Glo luminescent cell viability assay, ThP1. Type of assay: cell-based. The following applies: Homo sapiens, THP-1; Cell Titre Glo luminescence, normalized to DMSO controls.
Source text: (§4) Another embodiment discloses Titer Glo Assay for the characterization of the synthesized compounds. The CellTiter-Glo® Luminescent Cell Viability Assay is a homogeneous method of determining the number of viable cells in culture based on quantitation of the ATP present, an indicator of metabolically active cells. The CellTiter-Glo® Assay is designed for use with multiwell formats, making it ideal for automated high-throughput screening (HTS), cell proliferation, and cytotoxicity assays. The homogeneous assay procedure involves adding the single reagent (CellTiter-Glo® Reagent) directly to cells cultured in serum-supplemented medium. Cell washing, removal of medium, and multiple pipetting steps are not required. The system detects as few as 15 cells/well in a 384-well format in 10 minutes after adding reagent and mixing.
as §1
(§5) Cell Titre Glo assay was performed on two Leukemia cell lines, HL 60 and ThP1 as per manufacturer's (Promega) recommendations. Briefly, plates were prepared as mentioned in cell culture section. 100 µL of Cell Titre Glo was added directly to the wells. After incubation for 30 minutes at room temperature, luminescence was measured using the Envision plate reader (Perkin Elmer). Luminescence readings were normalized to averaged DMSO controls and expressed as relative percentage. IC50 values were calculated from dose-response curves generated using a polynomial dose-response approximation using Prism 8 software.

In assay [7] the test system is MDA-MD 231 (breast), MCF-7 (breast), KAIMRC1 (breast), HCT116 (colon) and HCT8 (colon). As to the kind of experiment: MTT assay, review of Tables 5 and 6 (whole cell line panel). Type of assay: cell-based, human. The following applies: review of Tables 5 and 6, MTT IC50. On the procedure:
as §1, §2, §3
The presence of nitrogen in certain positions of quinoline and/or iso-quinoline ring is the structure-activity determinant, and the subsequent variations in the nitrogen positions and substituents in this ring produce stronger leads by the methods of combinatorial expansion disclosed herein.

Assay [8] deals with HL 60 (leukemia). In words: Cell Titre Glo luminescent cell viability assay, HL 60. The conditions noted are these: Homo sapiens, HL-60; Cell Titre Glo luminescence, normalized to DMSO controls. Type of assay: cell-based.
Source text: as §4, §1, §5

For the compound `CCC1(C)OC(=O)C(=C/C=C/c2ccncc2)C(=O)O1` (stereo not drawn) [Example 9, 2-ETHYL-2-METHYL-5-(3-PYRIDIN-4-YL-ALLYLIDENE)-[1,3]DIOXANE-4,6-DIONE], the IC50 (as a rule, the point on the concentration scale where inhibition reaches its midpoint) in assay [1] was 5.03 µM; in assay [2], 24.2 µM; in assay [3], 3.54 µM; in assay [4], 2.17 µM; in assay [5] it was 21.6 µM; in assay [6], 2.81 µM. Also, the “range of activity compared with Mitoxanthrone” value in assay [7] is on record as “range of activity that begins to overlap with that of Mitoxanthrone”.

`CC1(C)OC(=O)C(=CC=Cc2cncc3ccccc23)C(=O)O1` [Example 10, 5-(3-ISOQUINOLIN-4-YL-ALLYLIDENE)-2,2-DIMETHYL-[1,3]DIOXANE-4,6-DIONE]: the figures for the IC50 in assay [4], in assay [5] and in assay [6] were 1.37 µM, 4.45 µM and 1.51 µM, respectively. Moreover, the “range of activity compared with Mitoxanthrone” value in assay [7] is on record as “range of activity that begins to overlap with that of Mitoxanthrone”.

Regarding `CCC1(C)OC(=O)C(=CC=Cc2cncc3ccccc23)C(=O)O1` (stereo not drawn) [Example 12, 2-ETHYL-5-(3-ISOQUINOLIN-4-YL-ALLYLIDENE)-2-METHYL-[1,3]DIOXANE-4,6-DIONE], the IC50 was found to be 6.05 µM in assay [1]; 9.29 µM in assay [2]; 2.47 µM in assay [3]; 1.87 µM in assay [4]; 4.25 µM in assay [5]; 2.05 µM in assay [8]. In assay [6], this compound came in with an IC50 of 1.82 µM. For the same compound, the “range of activity compared with Mitoxanthrone” value in assay [7] was “range of activity that begins to overlap with that of Mitoxanthrone”.

As for `CCC1(C)OC(=O)C(=CC=Cc2ccnc3ccccc23)C(=O)O1` (stereo not drawn) [Example 13, 2-ETHYL-2-METHYL-5-(3-QUINOLIN-4-YL-ALLYLIDENE)-[1,3]DIOXANE-4,6-DIONE], the half-inhibitory concentration (IC50) in assay [1] came out at 11 µM; in assay [2], 9.15 µM; in assay [3], 6.38 µM; in assay [4], 19.8 µM; in assay [5], 14.4 µM; in assay [8], 1.04 µM. Also, the IC50 in assay [6] came out at 0.88 µM. Besides, in assay [7], the “range of activity compared with Mitoxanthrone” value is on record as “range of activity that begins to overlap with that of Mitoxanthrone”.

(Values after patent US11161823B2, “Anticancer 1,3-dioxane-4,6-dione derivatives and method of combinatorial synthesis thereof” (National Guard Health Affairs, priority 2019, dated 2021).)
